Reference: patent US7947695B2, “5-membered annelated heterocyclic pyrimidines as kinase inhibitors” (Janssen Pharmaceutica NV, priority 2005, dated 2011)

test system: not given; assay: not given; conditions: not given

| melting point | SMILES |
| --- | --- |
| 177 to 181 °C | O=C(NC1CCN(CCO)CC1)c1ccc(Nc2ncc3cnn(C4CCCCC4)c3n2)cc1 [Co. No. 9] |
| 240 °C | O=S(=O)(c1ccc(Nc2ncc3cnn(C4CCCCC4)c3n2)cc1)N1CCOCC1 [Co. No. 8] |
| 180 °C | CN1CCN(c2ccc(Nc3ncc4cnn(C5CCCCC5)c4n3)cc2)CC1 [Co. No. 1] |
| > 260 °C | CN1CCN(c2ccc(Nc3ncc4c(=O)[nH]n(C5CCCCC5)c4n3)cc2)CC1 [Co. No. 7] |
| 203.5 to 203.6 °C | CN1CCN(c2ccc(Nc3ncc4ncn(C5CCCCC5)c4n3)cc2)CC1 [Co. No. 5] |
| 294 °C | CN1CCN(c2ccc(Nc3ncc4[nH]c(=O)n(C5CCCCC5)c4n3)cc2)CC1 [Co. No. 6] |

target: CDK4/cyclinD1 enzyme complex (Homo sapiens, UniProt P11802); assay: In vitro scintillation proximity assay (SPA) for CDK4 inhibitory activity; format: biochemical; conditions: GST-pRb substrate, 33P-ATP, 25° C. 30 minutes, read-out: cdk4 SPA see C.4 (pIC50) (converted)
Sequence (P11802 whole entry): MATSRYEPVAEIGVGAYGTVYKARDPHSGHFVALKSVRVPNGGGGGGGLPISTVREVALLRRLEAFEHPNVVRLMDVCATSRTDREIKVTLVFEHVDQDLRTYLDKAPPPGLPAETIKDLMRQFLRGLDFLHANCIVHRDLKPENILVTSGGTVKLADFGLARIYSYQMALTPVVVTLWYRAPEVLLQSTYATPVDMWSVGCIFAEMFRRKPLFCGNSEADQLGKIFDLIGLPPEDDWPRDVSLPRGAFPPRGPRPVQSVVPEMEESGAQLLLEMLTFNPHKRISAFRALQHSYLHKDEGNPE
Sequence (P24385 whole entry partner): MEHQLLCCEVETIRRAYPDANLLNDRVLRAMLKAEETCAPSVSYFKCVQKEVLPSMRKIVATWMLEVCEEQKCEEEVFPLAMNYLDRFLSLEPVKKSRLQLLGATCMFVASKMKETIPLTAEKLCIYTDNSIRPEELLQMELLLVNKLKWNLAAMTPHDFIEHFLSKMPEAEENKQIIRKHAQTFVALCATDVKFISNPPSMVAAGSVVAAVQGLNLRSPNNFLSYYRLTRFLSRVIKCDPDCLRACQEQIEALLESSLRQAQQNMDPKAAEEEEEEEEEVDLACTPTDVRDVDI
Procedure: Compounds of the present invention were tested in an in vitro assay based on SPA technology.
In principle, the assay relies upon the well established SPA technology for the detection of CDK4 phosphorylated proteins, i.e pRb. This phosphorylation is performed using I0 CDK4/cyclinD1 enzyme complex and ^33P-ATP as phosphor donor.
The CDK4 SPA kinase reaction is performed at 25° C. for 30 minutes in a 96-well microtiter plate. The 100 μl reaction volume contains 40 mM Hepes, 6 mM NaF, 6 mM MgCl2, 0.6 mM Na3VO4, 2 μg/ml Pepstatin, 2 μg/ml Leupeptin, 2 μg/ml Aprotinin, 50 μg/ml TLCK, 150 μg/ml DTT, 0.3 μg/ml benzamide, 0.1 μCi ^33P-ATP, 1.7 μg GST-pRb, 50 ng CDK4/cyclinD1/well and 0.2% compound in 100% DMSO. The reaction is stopped by adding to each well 100 μl of the glutathione coated SPA beads (10 mg/ml in PBS+10 mM EDTA+100 μM ATP+0.05% Triton X 100). The plates are then shaked at 300 rpm for 30 min to allow binding of the GST-tagged substrate to the glutathione coated beads. The beads are allowed to settle at the bottom of the plate for 30 minutes. The microtiterplates are centrifuges at 800 rpm for 10 minutes and the amount of phosphorylated (^33P) substrate is determined by counting (30 sec/well) in a microtiterplate scintillation counter.
(§1) For each experiment, controls (containing enzyme (complex) and DMSO without compound), a blank incubation (containing DMSO but no enzyme (complex) or compound) and samples (containing enzyme (complex) and compound dissolved in DMSO) were run in parallel. All compounds tested were dissolved and eventually further diluted in DMSO. […] In each test, the blank value was subtracted from both the control and the sample values. The control sample represented maximal enzyme activity. For each sample, the amount of cpm was expressed as a percentage of the mean cpm value of the controls. When appropriate, IC50-values (concentration of the drug, needed to reduce the enzyme activity to 50% of the control) were computed using linear interpolation between the experimental points just above and below the 50% level. Herein the effects of test compounds are expressed as pIC50 (the negative log value of the IC50-value).

| SMILES | IC50 |
| --- | --- |
| CN1CCN(c2ccc(Nc3ncc4cnn(C5CCCCC5)c4n3)cc2)CC1 [Co. No. 1] | 5.01 nM |
| CN1CCN(c2ccc(Nc3ncc4c(=O)[nH]n(C5CCCCC5)c4n3)cc2)CC1 [Co. No. 7] | 158 nM |
| CN1CCN(c2ccc(Nc3ncc4ncn(C5CCCCC5)c4n3)cc2)CC1 [Co. No. 5] | 3160 nM |
| CN1CCN(c2ccc(Nc3ncc4[nH]c(=O)n(C5CCCCC5)c4n3)cc2)CC1 [Co. No. 6] | 100 nM |

The next lines start with the values.

| IC50 | SMILES |
| --- | --- |
| 12.6 nM | OCCCC1CCN(c2ccc(Nc3ncc4cnn(C5CCCCC5)c4n3)cc2)CC1 [compound 10] |
| 2510 nM | O=c1[nH]n(C2CCCC2)c2nc(Nc3ccc(N4CCOCC4)cc3)ncc12 [compound 93] |
| 3.98 nM | CN1CCN(c2ccc(Nc3ncc4cnn(-c5ccccc5)c4n3)cc2)CC1 [compound 14] |
| 2510 nM | O=c1[nH]n(C2CCCC2)c2nc(Nc3ccc(N4CCC(CCCO)CC4)cc3)ncc12 [compound 92] |

target: AURORA B (Homo sapiens, UniProt Q96GD4); assay: In vitro filtration assay for AURORA B inhibitory activity; format: biochemical; conditions: peptide (C(LRRWSLG)×4), 1 μM unlabeled ATP, 25° C. 40 minutes, read-out: Aurora B see C.3 (pIC50) (converted)
Sequence (Q96GD4 whole entry): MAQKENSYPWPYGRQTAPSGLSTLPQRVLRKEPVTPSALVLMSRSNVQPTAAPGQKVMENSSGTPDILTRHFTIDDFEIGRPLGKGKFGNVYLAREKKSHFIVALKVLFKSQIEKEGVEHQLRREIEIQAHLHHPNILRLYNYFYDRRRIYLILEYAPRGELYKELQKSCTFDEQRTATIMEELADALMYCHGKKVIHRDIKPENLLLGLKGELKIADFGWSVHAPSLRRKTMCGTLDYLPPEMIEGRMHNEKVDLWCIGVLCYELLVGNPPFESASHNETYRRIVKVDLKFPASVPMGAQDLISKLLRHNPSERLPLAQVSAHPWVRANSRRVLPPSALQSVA
Procedure: (§2) Compounds of the present invention were tested in an in vitro filtration assay assessing AURORA B activity by means of its substrate-phosphorylation activity using [^33P]-ATP as phosphor donor. The radioactive phosphorylated substrate is then captured on filtermats and the incorporated [^33P] quantitated using a phosphorage storage screen.
The Aurora-B kinase reaction is performed at 25° C. for 40 minutes in a 96-well microtiterplate. The 25 μl reaction volume contains 60 mM Hepes pH 7.5, 3 mM MgCl2, 3 mM MnCl2, 3 μM Na3VO4, 50 μg/ml PEG20000, 1 μM unlabeled ATP, 1 mM DTT, 0.2 μCi AT^33P, 0.25 μg/well peptide (C(LRRWSLG)×4),100 ng Aurora-B/well and 0.2% compound in 100% DMSO. The reaction is stopped by adding 5 μl of a 3% phosphoric acid solution. 10 μl of the reaction mixture is then spotted onto a Filtermat P30 filter (Wallac) and washed 3 times for 5 min. in 75 mM phosphoric acid and 1 time for 5 min. in methanol prior to drying and quantification on the Typhoon (Amersham) using a phosphorage storage screen.
as §1

| SMILES | IC50 |
| --- | --- |
| O=C(NC1CCN(CCO)CC1)c1ccc(Nc2ncc3cnn(C4CCCCC4)c3n2)cc1 [Co. No. 9] | 794 nM |
| O=S(=O)(c1ccc(Nc2ncc3cnn(C4CCCCC4)c3n2)cc1)N1CCOCC1 [Co. No. 8] | > 10000 nM |
| CN1CCN(c2ccc(Nc3ncc4cnn(C5CCCCC5)c4n3)cc2)CC1 [Co. No. 1] | 251 nM |
| CN1CCN(c2ccc(Nc3ncc4c(=O)[nH]n(C5CCCCC5)c4n3)cc2)CC1 [Co. No. 7] | 398 nM |
| CN1CCN(c2ccc(Nc3ncc4ncn(C5CCCCC5)c4n3)cc2)CC1 [Co. No. 5] | > 10000 nM |
| CN1CCN(c2ccc(Nc3ncc4[nH]c(=O)n(C5CCCCC5)c4n3)cc2)CC1 [Co. No. 6] | > 10000 nM |

More lines, now with the values ahead:

| IC50 | SMILES |
| --- | --- |
| > 10000 nM | OCCCC1CCN(c2ccc(Nc3ncc4cnn(C5CCCCC5)c4n3)cc2)CC1 [compound 10] |
| > 10000 nM | O=c1[nH]n(C2CCCC2)c2nc(Nc3ccc(N4CCOCC4)cc3)ncc12 [compound 93] |
| 794 nM | CN1CCN(c2ccc(Nc3ncc4cnn(-c5ccccc5)c4n3)cc2)CC1 [compound 14] |
| > 10000 nM | O=c1[nH]n(C2CCCC2)c2nc(Nc3ccc(N4CCC(CCCO)CC4)cc3)ncc12 [compound 92] |

target: CDK4/cyclinD1 (Homo sapiens, UniProt P11802); assay: In vitro filtration assay for CDK4 inhibitory activity (pRb phosphorylation, [33P]-ATP); format: biochemical; conditions: GST-pRb substrate, 1 μM unlabeled ATP, 25° C. 45 minutes, read-out: cdk4 filter (pIC50) (converted)
Sequence (P11802 whole entry): as the sequence (P11802 whole entry) above
Sequence (P24385 whole entry partner): as the sequence (P24385 whole entry partner) above
Procedure: as §2, with “CDK4” for “AURORA B”, “pRb-phosphorylation” for “substrate-phosphorylation”, “pRb” for “substrate”
The CDK4 kinase reaction is performed at 25° C. for 45 minutes in a 96-well microtiterplate. The 25 μl reaction volume contains 50 mM Hepes pH 7.5, 10 mM NaF, 10 mM MgCl2, 1 mM Na3VO4, 1 μM unlabeled ATP, 1 mM DTT, 0.5 μCi AT^33P, 0.76 μg/well GST-pRb, 50 ng CDK4/cyclinD1/well and 0.2% compound in 100% DMSO.
(§3) The reaction is stopped by adding 5 μl of a 3% phosphoric acid solution. 10 μl of the reaction mixture is then spotted onto a Filtermat P30 filter (Wallac) and washed 3 times for 5 min. in 75 mM phosphoric acid and 1 time for 5 min. in methanol prior to drying and quantification on the Typhoon (Amersham) using a phosphorage storage screen.
as §1

| SMILES | IC50 |
| --- | --- |
| O=C(NC1CCN(CCO)CC1)c1ccc(Nc2ncc3cnn(C4CCCCC4)c3n2)cc1 [Co. No. 9] | 126 nM |
| O=S(=O)(c1ccc(Nc2ncc3cnn(C4CCCCC4)c3n2)cc1)N1CCOCC1 [Co. No. 8] | 100 nM |
| CN1CCN(c2ccc(Nc3ncc4cnn(C5CCCCC5)c4n3)cc2)CC1 [Co. No. 1] | 3.16 nM |
| CN1CCN(c2ccc(Nc3ncc4c(=O)[nH]n(C5CCCCC5)c4n3)cc2)CC1 [Co. No. 7] | 79.4 nM |
| CN1CCN(c2ccc(Nc3ncc4ncn(C5CCCCC5)c4n3)cc2)CC1 [Co. No. 5] | 631 nM |
| CN1CCN(c2ccc(Nc3ncc4[nH]c(=O)n(C5CCCCC5)c4n3)cc2)CC1 [Co. No. 6] | 251 nM |

Further lines, results first:

| IC50 | SMILES |
| --- | --- |
| 79.4 nM | OCCCC1CCN(c2ccc(Nc3ncc4cnn(C5CCCCC5)c4n3)cc2)CC1 [compound 10] |
| 5010 nM | O=c1[nH]n(C2CCCC2)c2nc(Nc3ccc(N4CCOCC4)cc3)ncc12 [compound 93] |
| 20 nM | CN1CCN(c2ccc(Nc3ncc4cnn(-c5ccccc5)c4n3)cc2)CC1 [compound 14] |
| 6310 nM | O=c1[nH]n(C2CCCC2)c2nc(Nc3ccc(N4CCC(CCCO)CC4)cc3)ncc12 [compound 92] |

target: T1, AURORA A (Homo sapiens, UniProt O14965); assay: In vitro filtration assay for AURORA A inhibitory activity; format: biochemical; conditions: Kemptide substrate, 1 μM unlabeled ATP, 25° C. 40 minutes, read-out: Aurora A see C.2 (pIC50) (converted)
T1 sequence (O14965 1-403): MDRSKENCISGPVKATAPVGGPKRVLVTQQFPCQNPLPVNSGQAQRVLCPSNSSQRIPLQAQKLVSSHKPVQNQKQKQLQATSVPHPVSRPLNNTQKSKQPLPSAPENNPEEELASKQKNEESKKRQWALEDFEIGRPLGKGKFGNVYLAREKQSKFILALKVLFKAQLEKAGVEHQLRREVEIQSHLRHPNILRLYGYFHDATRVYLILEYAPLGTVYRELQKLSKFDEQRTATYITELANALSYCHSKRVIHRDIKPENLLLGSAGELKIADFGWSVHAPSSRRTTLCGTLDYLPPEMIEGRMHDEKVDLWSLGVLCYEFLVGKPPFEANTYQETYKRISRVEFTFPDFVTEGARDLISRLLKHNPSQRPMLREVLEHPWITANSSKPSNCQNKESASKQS
Procedure: as §2, with “A” for “B”
The Aurora-A kinase reaction is performed at 25° C. for 40 minutes in a 96-well microtiterplate. The 25 μl reaction volume contains 12 mM MOPS pH 7, 0.4 mM EDTA, 0.002% Brij35, 1% glycerol, 0.02% beta-mercapto-ethanol, 0.2 mg/ml BSA, 1 μM unlabeled ATP, […] [^33P]-ATP, 200 μM Kemptide, 3 ng Aurora A/well and 0.2% compound in 100% DMSO.
as §3, §1

| SMILES | IC50 |
| --- | --- |
| O=C(NC1CCN(CCO)CC1)c1ccc(Nc2ncc3cnn(C4CCCCC4)c3n2)cc1 [Co. No. 9] | 251 nM |
| O=S(=O)(c1ccc(Nc2ncc3cnn(C4CCCCC4)c3n2)cc1)N1CCOCC1 [Co. No. 8] | 501 nM |
| CN1CCN(c2ccc(Nc3ncc4cnn(C5CCCCC5)c4n3)cc2)CC1 [Co. No. 1] | 126 nM |
| CN1CCN(c2ccc(Nc3ncc4ncn(C5CCCCC5)c4n3)cc2)CC1 [Co. No. 5] | > 10000 nM |
| CN1CCN(c2ccc(Nc3ncc4[nH]c(=O)n(C5CCCCC5)c4n3)cc2)CC1 [Co. No. 6] | > 10000 nM |

The remaining lines, values ahead:

| IC50 | SMILES |
| --- | --- |
| 50.1 nM | OCCCC1CCN(c2ccc(Nc3ncc4cnn(C5CCCCC5)c4n3)cc2)CC1 [compound 10] |
| 1580 nM | O=c1[nH]n(C2CCCC2)c2nc(Nc3ccc(N4CCOCC4)cc3)ncc12 [compound 93] |
| 79.4 nM | CN1CCN(c2ccc(Nc3ncc4cnn(-c5ccccc5)c4n3)cc2)CC1 [compound 14] |
